From article PMC8050276, “Estradiol analogs attenuate autophagy, cell migration and invasion by direct and selective inhibition of TRPML1, independent of estrogen receptors” (Scientific Reports, 2021)

System: TFEB
Assay: TFEB shift / nuclear translocation upon nutrient starvation
Assay type: cell-based, human
Details: EDME 1 µM, Hbss
Experimental: 5 × 10^4 wild-type human fibroblasts were seeded in a 12-well plate and treated overnight with DMSO or different TRPML1 inhibitors (EDME, PRU-10, PRU-12). The day after, cells were treated for 3 h in full media (Fed) or HBSS supplemented with 10 mM HEPES (nutrient starved) in presence of DMSO or different TRPML1 inhibitors (EDME, PRU-10, PRU-12). For autophagic flux experiments, cells were co-treated with 100 nM of bafilomycin A1 (Sigma).
Total cell lysates were prepared using TRIS HCl 10 mM pH 8.0 and 0.2% SDS supplemented with protein and phosphatase inhibitors (Sigma). Protein concentration was determined using the Bradford method. After SDS–polyacrylamide gel electrophoresis (PAGE) and immunoblotting, the protein recognized by the specific antibody was visualized by chemiluminescence methods (Luminata Crescendo Western HRP substrate, Millipore) using HRP-conjugated anti-rabbit or anti-mouse secondary antibodies (Cell Signalling). Images were acquired using Li-Cor Odyssey Fc Imaging System and densitometric quantification of unsaturated images was performed using ImageJ software (NIH). Uncropped and unprocessed western blot scans are provided as Fig. S1. The following primary antibodies were used: LC3 (Novus Cat. No. NB100-2220, 1:1000 in 5% milk), TFEB (Cell Signaling Cat. No. 4240, 1:1000 in 5% BSA) and β-actin (Santa Cruz Cat. No. Sc-47778, 1: 1000 in 5% BSA).

For `COc1ccc2c(c1)CC[C@@H]1[C@@H]2CC[C@]2(C)[C@@H](O)CC[C@@H]12` [EDME, 17β-estradiol methyl ether], the “TFEB molecular downshift induced by nutrient starvation” value was “reduced”.
